In test [1] the test system is MPTP-treated animals. Kind of test: Nest-building test in MPTP model of PD. Type of test: in vivo, mice. Particulars: one dose 25 mg/kg. Here is the method: Impaired nest-building skill has been widely used as one of the most reliable indication of motor dysfunction in the MPTP model of […] et al, Behav Brain Res, 125:109-25, 2001). In this test, animals are given cotton pads to be used as nestling, and are tested for their abilities to tear off the cotton pads into small pieces to build a nest; these abilities require fine motor coordination. Animals with microglia-specific deletion of Ppargc1a and controls were generated as described in Example 1. […] Control animals received a similar volume of PBS. Immediately after the last dosage of MPTP, each animal was put in one cage and given two cotton pads to be used in nestling; the appearance of the cotton pads was evaluated 16 hours later. The results are shown in FIG. 7 as weights of shredded nestlets (n=9-10 animals per treatment group). […] MPTP-ZLN animals generated more cotton-debris in comparison to the MPTP-Ctrl group. […] Unpaired t-tests were used for statistical analyses.

Test [2] has as its system microglia. In words: Microglia flow cytometry in acute STZ model of AD (TNF-α, ThioltrackerViolet, MitotrackerRed). Type of test: in vivo, mice. Here is the method:
To induce symptoms of AD, STZ (3 mg/kg, Sigma) was administered via intracerebral injection ([…] et al, Int J Neurosci, PMID 24494726, 2014). This is a well-established model of the sporadic form of AD. Briefly, animals were anesthetized and STZ solution in 5 μl artificial cerebrospinal fluid (Harvard Apparatus) was injected through the skull with a 50 μl syringe. Control animals received a similar volume of artificial cerebrospinal fluid without STZ. The injections were performed twice, on Day 1 and Day 3. […] Treatment with ZLN005 was continued on a daily schedule until Day 7. […] Microglia were phenotyped with antibodies directed against mouse TNF-α (Biolegend) and metabolic dyes […], and MitotrackerRed (Invitrogen) for flow cytometric acquisition (LSRII, BD) and analysis (FlowJo). […] ANOVA was used for statistical analyses.

Test [3] concerns microglia. Kind of test: Microglia IL1 and TNFα in 5XFAD AD transgenic animals. Type of test: in vivo, mice. Particulars: 25 mg/kg orally 3 times a week for 4 weeks, 7 weeks of age. The text has this:
5XFAD transgenic mice, which are model of familial AD, were purchased from Jackson Laboratories (Oakley et al J Neurosci. 26:10129-40, 2006). These animals overexpress both mutant human APP(695) with the Swedish (K670N, M671L), Florida (I716V), and London (V7171) Familial Alzheimer's Disease (FAD) mutations and human PS1 harboring two FAD mutations, M146L and L286V. These transgenic mice rapidly recapitulate major features of amyloid pathology in AD by 8-10 weeks of age. Microglia abnormalities and neuroinflammation are also pronounced within this time window. Subsequently, neurodegeneration and behavioral dysfunction that mimic cognitive and psychiatric symptoms of human AD begin and are pronounced by 4-5 months of age. AD transgenic animals were orally treated 3 times a week for 4 weeks with 0.5% methylcellulose or ZLN005 (Sigma) at 25 mg/kg in 0.5% methylcellulose, starting at 3 weeks of age. For studies of microglia, 5[…]=10), 5XFAD-Ctrl (n=8) and WT (n=11) animals were sacrificed at 7 weeks of age. PBS-perfused brain tissues of sacrificed animals were digested with Collagenase IV and processed for flow cytometry. Brain microglia were phenotyped with antibodies directed against mouse IL1 and TNFα (Biolegend) for flow cytometric acquisition (LSRII, BD) and analysis (FlowJo). The results are summarized in FIG. 12; Y-axis represents % of microglia that express IL1 (A) and TNFα (B). […]

Test [4] concerns CD115+CD11b+ blood monocytes. Kind of test: Blood monocyte frequency in 5XFAD AD transgenic animals. Format: in vivo, mice. Particulars: 25 mg/kg orally 3 times a week for 4 weeks, 7 weeks of age. As to the method: AD transgenic animals were orally treated 3 times a week for 4 weeks with 0.5% methylcellulose or ZLN005 (Sigma) at 25 mg/kg in 0.5% methylcellulose, starting at 3 weeks of age. For measuring the frequency of CD115+CD11b+ blood monocytes, 5[…]=5), 5XFAD-Ctrl (n=4), and WT animals (n=4) were sacrificed at 7 weeks of age. The results are summarized in FIG. 14; Y-axis represents % of total circulating monocytes among circulating immune cells. […] ANOVA was used for statistical analysis.

The subject of test [5] is AD transgenic animals. In words: Nest building in 5XFAD AD transgenic animals. Type of test: in vivo, mice. The following applies: 25 mg/kg orally 3 times a week for 4 weeks, 7 weeks of age, vs 5XFAD-Ctrl. As to the method:
As described in Example 7, nest-building skill is one of the most reliable measurements of motor function. In this test, AD transgenic animals were orally treated 3 times a week for 4 weeks with 0.5% methylcellulose or ZLN005 (Sigma) at 25 mg/kg in 0.5% methylcellulose, starting at 3 weeks of age. At 7 weeks of age, animals were given cotton pads and the amount of cotton that was shredded over a 24-hour period was measured. […] Unpaired t-test was used for statistical analysis.

The subject of test [6] is ALS transgenic mice. Kind of test: Survival of ALS transgenic animals. Type of test: in vivo. Here is the method:
ALS transgenic mice were orally treated 3 times a week with 0.5% methylcellulose or ZLN005 (Sigma) at 25 mg/kg in 0.5% methylcellulose, starting at 5, 10 and 15 weeks of age.
Survival of ALS-Ctrl (n=18) and ALS-ZLN mice (n=8) were monitored until all animals succumbed. […] Log-rank test was used for statistical analysis.

In test [7] the test system is DLB transgenic animals. In words: Wheel-running test in DLB transgenic animals (SNCA*A53T). Format: in vivo, mice. Particulars: 25 mg/kg orally 3 times a week for 12 weeks. Here is the method:
[…] transgenic mice, an animal model in which the mutated form of human alpha synuclein is overexpressed, were generated to study pathological mechanisms in PD and DLB (Lee et al, Proc Natl Acad Sci USA. 2002, 13:8968-8970). […] DLB transgenic animals were purchased from Jackson Laboratories and were orally treated 3 times a week with 0.5% methylcellulose (Ctrl) or ZLN005 (ZLN) at 25 mg/kg in vehicle, starting at 8 weeks of age for 12 weeks. Subsequently, at 20 weeks of age, these animals were subjected to 1.5 weeks of training on a treadmill at a constant speed 10 rpm and then 1.5 weeks of training at an accelerating speed from 5-15 rpm, similar to those described in Example 8. After the training period at 21.5 and 23 weeks of age, animals were tested for motor performance at a constant speed and at an accelerating speed, respectively. DLB-ZLN mice (n=11) show an increase in latency to fall in comparison to DLB-Ctrl mice (n=9) at a constant speed of 10 rpm (271.5 seconds vs. 252.8 seconds). […] Thus, motor dysfunction of DLB mice was alleviated by ZLN005 treatment. Unpaired t-tests were used for statistical analyses.

The mark [8] stands for this setting: STZ-treated animals, 25 mg/kg orally daily until Day 7.

For `CC(C)(C)c1ccc(-c2nc3ccccc3[nH]2)cc1` [ZLN005, 2-(4-tert-butylphenyl)-1H-benzimidazole], the “nest-building, weights of shredded nestlets (fine motor skills)” value in test [1] (MPTP-treated Cre animals) is listed as “present only in FF animals but not in Cre animals”. In addition, the “nest-building, weights of shredded nestlets (fine motor skills)” value in test [1] (MPTP-treated FF animals, evaluated 16 hours later, vs MPTP-Ctrl) was “marked improvement in their fine motor skills”. For the same molecule, in test [2] (setting [8]), the “TNF-α production in microglia” value is recorded as “suppressed TNF-α production”, the “mitochondrial potential in microglia (MitotrackerRed)” value is listed as “enhanced” and the “production of glutathione in microglia (ThioltrackerViolet)” value is listed as “enhanced”. In test [2] (microglia isolated from STZ-treated animals), the glycolysis in microglia entry was “enhanced glycolysis”. For the same molecule, in test [3], the “IL1 production in microglia” value was “decreased” and the “TNFα production in microglia” value was “decreased”. Besides, the “percentage of monocytes among circulating immune cells” value in test [4] is reported as “decreased”. Moreover, in test [5], the “nest building, amount of cotton shredded over 24 hours” value was “significantly increased the amount of cotton shredded”. The “onset of hind limb paralysis” value in test [6] (ALS transgenic mice) was “delayed”. Further, the mean survival in test [6] (ALS transgenic, 25 mg/kg orally 3 times a week starting at 5 or 10 weeks of age, p <0.05 vs ALS-Ctrl) was 131 to 132 days. The molecule also yielded a latency to fall in test [7] (accelerating speed 5-15 rpm, p <0.05 vs Ctrl) of 194.0 s. The molecule also gave a latency to fall in test [7] (constant speed 10 rpm, difference to Ctrl not statistically significant) of 271.5 s.

The record behind these values is patent publication US10966962B2, “Method for treating neurodegenerative diseases” (THE BOARD OF TRUSTEES OF THE LELAND STANFORD JUNIOR …, priority 2014, dated 2021).
